Measured values: ChEMBL document CHEMBL3885881, “DrugMatrix”

Species on record: Rattus norvegicus
Experiment: DrugMatrix - Regimen: Daily Repeat
Assay type: toxicity, organism-based, Sprague-Dawley
Design: regimen Daily Repeat, gender Male, age 6-8 weeks
Conditions: in vivo, po, route oral GAVAGE, vehicle 100 % WATER; for ABSOLUTE BASOPHIL / ABSOLUTE EOSINOPHIL / ABSOLUTE LYMPHOCYTE / ABSOLUTE MONOCYTE / ABSOLUTE SEGMENTED NEUTROPHIL / BASOPHIL / EOSINOPHIL / ERYTHROCYTE COUNT / HEMATOCRIT / HEMOGLOBIN / LEUKOCYTE COUNT / LYMPHOCYTE / MEAN CORPUSCULAR HEMOGLOBIN / MEAN CORPUSCULAR HEMOGLOBIN CONCENTRATION / MEAN CORPUSCULAR VOLUME / MONOCYTE / NEUTROPHIL / NUCLEATED RED BLOOD CELLS / PLATELET COUNT: tissue Blood; for ALANINE AMINOTRANSFERASE / ALBUMIN / ALKALINE PHOSPHATASE / ASPARTATE AMINOTRANSFERASE / BLOOD UREA NITROGEN / CARBON DIOXIDE / CHLORIDE / CHOLESTEROL / CREATINE PHOSPHOKINASE / CREATININE / GLUCOSE / LACTATE DEHYDROGENASE / LIPASE / PHOSPHORUS / POTASSIUM / SODIUM / TOTAL BILIRUBIN / TOTAL PROTEIN / URIC ACID: tissue Plasma
[1] = 0 mg/kg, 72 h, dose level Control, time 3 day
[2] = 0 mg/kg, 120 h, dose level Control, time 5 day
[3] = 1 mg/kg, 72 h, dose level Low, time 3 day

In the case of `CC[C@H](C)[C@H]1O[C@]2(C=C[C@@H]1C)C[C@@H]1C[C@@H](C/C=C(\C)[C@@H](O[C@H]3C[C@H](OC)[C@@H](O[C@H]4C[C@H](OC)[C@@H](O)[C@H](C)O4)[C@H](C)O3)[C@@H](C)/C=C/C=C3\CO[C@@H]4[C@H](O)C(C)=C[C@@H](C(=O)O1)[C@]34O)O2.CO[C@H]1C[C@H](O[C@H]2[C@H](C)O[C@@H](O[C@@H]3/C(C)=C/C[C@@H]4C[C@@H](C[C@]5(C=C[C@H](C)[C@@H](C(C)C)O5)O4)OC(=O)[C@@H]4C=C(C)[C@@H](O)[C@H]5OC/C(=C\C=C\[C@@H]3C)[C@]54O)C[C@@H]2OC)O[C@@H](C)[C@@H]1O` [ABAMECTIN], the “ABSOLUTE BASOPHIL” value [1] is reported as 0 CELLS/uL, the “ABSOLUTE EOSINOPHIL” value [1] is reported as 40 CELLS/uL and the “ABSOLUTE LYMPHOCYTE” value [1] is reported as 13599.5 CELLS/uL. The “ABSOLUTE MONOCYTE” value [1] was 239.33 CELLS/uL, the “ABSOLUTE SEGMENTED NEUTROPHIL” value [1] was 1021.17 CELLS/uL and the BASOPHIL [1] was 0%. For the same molecule, the EOSINOPHIL [1] was 0.33%, the “ERYTHROCYTE COUNT” value [1] was 5.71 x10E6/uL and the HEMATOCRIT [1] was 36.35%. For the same molecule, the HEMOGLOBIN [1] was 14.05 G/DL, the “LEUKOCYTE COUNT” value [1] was 14.9 x10E3/uL and the LYMPHOCYTE [1] was 91%. The “MEAN CORPUSCULAR HEMOGLOBIN” value [1] was 24.62 pg, the “MEAN CORPUSCULAR HEMOGLOBIN CONCENTRATION” value [1] was 38.65 G/DL and the “MEAN CORPUSCULAR VOLUME” value [1] was 63.7 fL. For the same molecule, the MONOCYTE [1] was 1.5%, the NEUTROPHIL [1] was 7.17% and the “NUCLEATED RED BLOOD CELLS” value [1] was 0.33 /100WBC. The “PLATELET COUNT” value [1] was 1225.5 x10E3/uL, the “ALANINE AMINOTRANSFERASE” value [1] was 48.5 u/L and the ALBUMIN [1] was 4.18 G/DL. The “ALKALINE PHOSPHATASE” value [1] was 390.83 u/L, the “ASPARTATE AMINOTRANSFERASE” value [1] was 89 u/L and the “BLOOD UREA NITROGEN” value [1] was 14.83 mg/dL. For the same molecule, the “CARBON DIOXIDE” value [1] was 24.83 mmol/L, the CHLORIDE [1] was 100.83 MEQ/L and the CHOLESTEROL [1] was 72.5 mg/dL. For the same molecule, the “CREATINE PHOSPHOKINASE” value [1] was 503 u/L, the CREATININE [1] was 0.2 mg/dL and the GLUCOSE [1] was 163 mg/dL. The “LACTATE DEHYDROGENASE” value [1] was 316.83 u/L, the LIPASE [1] was 9.83 u/L and the PHOSPHORUS [1] was 11.57 mg/dL. The POTASSIUM [1] was 6.16 MEQ/L, the SODIUM [1] was 142.62 MEQ/L and the “TOTAL BILIRUBIN” value [1] was 0.2 mg/dL. The “TOTAL PROTEIN” value [1] was 5.8 G/DL, the “URIC ACID” value [1] was 1.65 mg/dL and the “ABSOLUTE BASOPHIL” value [2] was 0 CELLS/uL. The “ABSOLUTE EOSINOPHIL” value [2] was 21 CELLS/uL, the “ABSOLUTE LYMPHOCYTE” value [2] was 14288.5 CELLS/uL and the “ABSOLUTE MONOCYTE” value [2] was 205.33 CELLS/uL. The “ABSOLUTE SEGMENTED NEUTROPHIL” value [2] was 968.5 CELLS/uL, the BASOPHIL [2] was 0% and the EOSINOPHIL [2] was 0.17%. For the same molecule, the “ERYTHROCYTE COUNT” value [2] was 5.83 x10E6/uL, the HEMATOCRIT [2] was 36.53% and the HEMOGLOBIN [2] was 14.4 G/DL. The “LEUKOCYTE COUNT” value [2] was 15.48 x10E3/uL, the LYMPHOCYTE [2] was 92% and the “MEAN CORPUSCULAR HEMOGLOBIN” value [2] was 24.72 pg. The “MEAN CORPUSCULAR HEMOGLOBIN CONCENTRATION” value [2] was 39.43 G/DL, the “MEAN CORPUSCULAR VOLUME” value [2] was 62.68 fL and the MONOCYTE [2] was 1.33%. The NEUTROPHIL [2] was 6.5%, the “NUCLEATED RED BLOOD CELLS” value [2] was 0.17 /100WBC and the “PLATELET COUNT” value [2] was 1280.5 x10E3/uL. For the same molecule, the “ALANINE AMINOTRANSFERASE” value [2] was 50 u/L, the ALBUMIN [2] was 4.28 G/DL and the “ALKALINE PHOSPHATASE” value [2] was 380.17 u/L. The “ASPARTATE AMINOTRANSFERASE” value [2] was 82.67 u/L, the “BLOOD UREA NITROGEN” value [2] was 15.33 mg/dL and the “CARBON DIOXIDE” value [2] was 27.17 mmol/L. For the same molecule, the CHLORIDE [2] was 100.33 MEQ/L, the CHOLESTEROL [2] was 60.67 mg/dL and the “CREATINE PHOSPHOKINASE” value [2] was 441.5 u/L. The CREATININE [2] was 0.16 mg/dL, the GLUCOSE [2] was 146 mg/dL and the “LACTATE DEHYDROGENASE” value [2] was 189.33 u/L. For the same molecule, the LIPASE [2] was 9.17 u/L, the PHOSPHORUS [2] was 11.67 mg/dL and the POTASSIUM [2] was 6.86 MEQ/L. The SODIUM [2] was 142.33 MEQ/L, the “TOTAL BILIRUBIN” value [2] was 0.2 mg/dL and the “TOTAL PROTEIN” value [2] was 6.12 G/DL. For the same molecule, the “URIC ACID” value [2] was 1.82 mg/dL, the “ABSOLUTE BASOPHIL” value [3] was 0 CELLS/uL and the “ABSOLUTE EOSINOPHIL” value [3] was 0 CELLS/uL. For the same molecule, the “ABSOLUTE LYMPHOCYTE” value [3] was 13707 CELLS/uL, the “ABSOLUTE MONOCYTE” value [3] was 388 CELLS/uL and the “ABSOLUTE SEGMENTED NEUTROPHIL” value [3] was 1005 CELLS/uL. The BASOPHIL [3] was 0%, the EOSINOPHIL [3] was 0% and the “ERYTHROCYTE COUNT” value [3] was 5.4 x10E6/uL. For the same molecule, the HEMATOCRIT [3] was 34.53%, the HEMOGLOBIN [3] was 13.23 G/DL and the “LEUKOCYTE COUNT” value [3] was 15.1 x10E3/uL. For the same molecule, the LYMPHOCYTE [3] was 91%, the “MEAN CORPUSCULAR HEMOGLOBIN” value [3] was 24.47 pg and the “MEAN CORPUSCULAR HEMOGLOBIN CONCENTRATION” value [3] was 38.3 G/DL. The “MEAN CORPUSCULAR VOLUME” value [3] was 63.93 fL, the MONOCYTE [3] was 2.67% and the NEUTROPHIL [3] was 6.33%. The “NUCLEATED RED BLOOD CELLS” value [3] was 0 /100WBC, the “PLATELET COUNT” value [3] was 1310 x10E3/uL and the “ALANINE AMINOTRANSFERASE” value [3] was 54 u/L. The ALBUMIN [3] was 4.17 G/DL, the “ALKALINE PHOSPHATASE” value [3] was 413 u/L and the “ASPARTATE AMINOTRANSFERASE” value [3] was 81.33 u/L. For the same molecule, the “BLOOD UREA NITROGEN” value [3] was 14.33 mg/dL, the “CARBON DIOXIDE” value [3] was 26.67 mmol/L and the CHLORIDE [3] was 100.33 MEQ/L. The CHOLESTEROL [3] was 79.67 mg/dL, the “CREATINE PHOSPHOKINASE” value [3] was 332.67 u/L and the CREATININE [3] was 0.19 mg/dL. The GLUCOSE [3] was 158 mg/dL, the “LACTATE DEHYDROGENASE” value [3] was 294.67 u/L and the LIPASE [3] was 9 u/L. The PHOSPHORUS [3] was 11.97 mg/dL, the POTASSIUM [3] was 6.52 MEQ/L and the SODIUM [3] was 142.57 MEQ/L. For the same molecule, the “TOTAL BILIRUBIN” value [3] was 0.23 mg/dL, the “TOTAL PROTEIN” value [3] was 5.73 G/DL and the “URIC ACID” value [3] was 1.57 mg/dL.
